Consider 20 compounds from the Deep4Chem optical property database.

This series can be described thus: photoluminescence quantum yield (fraction); solvent given as SMILES.

Each structure is given as a SMILES string.

For `CC(=O)O[B-]1(OC(C)=O)OC(/C=C/c2cccc3ccccc23)=CC(/C=C/c2cccc3ccccc23)=[O+]1`, the photoluminescence quantum yield runs as follows: (in C1CCOC1) 0.75; (in CC#N) 0.43; (in CC(C)=O) 0.58; (in CS(C)=O) 0.38; (in Cc1ccccc1) 0.84; (in ClC(Cl)Cl) 0.73. For the setting “in ClCCl”, this compound showed a photoluminescence quantum yield of 0.64.
Turning to `CC1=CC(C)=[N+]2C1=C(c1ccc(N3CCOCC3)cc1)c1c(C)cc(C)n1[B-]2(F)F`, the photoluminescence quantum yield is, setting by setting: (in C1CCOC1) 0.011; (in CC#N) 0.001; (in CC(=O)C(C)(C)C) 0.063; (in CC(C)=O) 0.001; (in CCCCCC) 0.45; (in CCOC(C)=O) 0.029. Where the note is “in CO”, this compound registered a photoluminescence quantum yield of 0.002.
With `Ic1ccc(-c2c3ccc(=[N+]4CCCCC4)cc-3oc3cc(N4CCCCC4)ccc23)cc1`, the photoluminescence quantum yield (in CCO) turned out to be 0.28 and the photoluminescence quantum yield (in ClCCl) came to 0.85.
For the setting “in ClC(Cl)Cl”, `Cc1ccc(/C2=c3\cc/c(o3)=C(\c3ccc(C)cc3)c3ccc([nH]3)-c3ccc4n3[B-](F)(F)[N+]3=C(C=CC3=C4c3ccc[nH]3)c3ccc2[nH]3)cc1` came in with a photoluminescence quantum yield of 0.12.
In the case of `CC(C)(C)OC(=O)n1ccc2c3ccc4cccc5ccc(cc21)c3c54`, the photoluminescence quantum yield (in CCOC(C)=O) was found to be 0.27.
`C(#Cc1c(C#Cc2ccccc2)c(C#Cc2ccccc2)c(C#Cc2ccccc2)c(C#Cc2ccccc2)c1C#Cc1ccccc1)c1ccccc1` showed a photoluminescence quantum yield (in ClCCl) of 0.43.
The same measure, in the same setting: as for `CC(C)(C)c1ccc2c(c1)c1ncncc1c1c3ccccc3sc21`, the figure is 0.1.
For `Oc1cccc(-c2nc(-c3ccccc3)c(-c3ccccc3)[nH]2)c1`, the photoluminescence quantum yield (in CO) turned out to be 0.24.
With `CCCCn1c2ccc(C#N)cc2c2cc(C#N)cc(-c3ccc(N(c4ccccc4)c4ccccc4)cc3)c21`, the photoluminescence quantum yield (in ClCCl) worked out at 0.65.
For `O=C(c1ccc(N2c3ccccc3Sc3ccccc32)cc1)c1ccc2sc3ccccc3c2c1`, the photoluminescence quantum yield (in C1CCOC1) amounted to 0.005 and the photoluminescence quantum yield (in c1ccc2c(c1)c1ccccc1n2-c1ccc(-c2ccc(-n3c4ccccc4c4ccccc43)cc2)cc1) came to 0.768.
Consider `CCC1=C(C)C2=C(C)c3c(I)c(I)cn3[B-](F)(F)[N+]2=C1C`, for which the photoluminescence quantum yield reads like this: (in C1CCCCC1) 0.05; (in CC(C)=O) 0.024; (in CCO) 0.021; (in CCOC(C)=O) 0.031; (in CO) 0.02; (in OCC(F)(F)F) 0.019.
As to `CC1=CC(C)=[N+]2C1=C(C1=C3C(C)=CC(C)=[N+]3[B-](F)(F)n3c(C)cc(C)c31)c1c(C)cc(C)n1[B-]2(F)F`, the photoluminescence quantum yield (in ClC(Cl)Cl) was 0.31.
Compound `N#CC1=C(N)n2c(=O)c3ccccc3c(=O)n2C1c1ccccc1` (stereo not given) yielded a photoluminescence quantum yield (in CS(C)=O) of 0.057.
Regarding `C=CCNc1ccc2ccc3oc4cc(=[N+]5CCCC5)ccc-4nc3c2c1`, the photoluminescence quantum yield runs as follows: (in CC#N) 0.1; (in CCO) 0.04; (in ClCCl) 0.13; (in O) 0.006.
The compound `COc1cc2sc3nc(-c4ccccc4OC)sc3c2cc1OC` yielded a photoluminescence quantum yield (in CS(C)=O) of 0.76.
`CC[N+]1(CC)CN2C(=N1)C(C(=O)O)=Cc1ccc(C)cc12` displayed a photoluminescence quantum yield (in O) of 0.617.
Consider `CN(C)c1ccc(/C=C/C=C/c2ccc([N+](=O)[O-])c(O)c2)cc1`, for which the photoluminescence quantum yield runs as follows: (in C1CCCCC1) 0.13; (in C1COCCO1) 0.03; (in CCCCCCC) 0.1; (in Cc1ccccc1) 0.11.
The compound `CC(=O)c1ccc(-c2cccc3ncc(-c4ccccc4)n23)cc1` had a photoluminescence quantum yield (in ClCCl) of 0.43.
Compound `Cc1ccc(/C2=c3\cc/c(o3)=C(\c3ccc(C)cc3)c3ccc([nH]3)-c3ccc4n3[P-](=O)(=O)[N+]3=C(C=CC3=C4c3ccco3)c3ccc2[nH]3)cc1` returned a photoluminescence quantum yield (in ClC(Cl)Cl) of 0.09.
Still for that read-out and setting: in the case of `CCCCCCN1C(=O)c2cccc3cc(/N=C\c4c[nH]c5c4ccc4ccccc45)cc(c23)C1=O` it was 0.073.
